Results from patent publication US20250115597A1, “TYK2 INHIBITORS AND COMPOSITIONS AND METHODS THEREOF” (LYNK PHARMACEUTICALS CO. LTD., priority 2021, published 2025).
Like-named read-outs stand apart in the source and are kept apart here.

Assays:
TYK2-JH2 domain = molecular target: T1, TYK2-JH2 domain (Homo sapiens, UniProt P29597); experiment: Binding activity test for JH2 domain of TYK2 (Tb-antibody/tracer FRET); settings: for JAK1/TYK2 selectivity: ratio JAK1-JH2 IC50 / TYK2-JH2 IC50
T1 construct: IC50 on JH2 domain activity (nM)
T1 sequence (P29597 589-875 limits assumed): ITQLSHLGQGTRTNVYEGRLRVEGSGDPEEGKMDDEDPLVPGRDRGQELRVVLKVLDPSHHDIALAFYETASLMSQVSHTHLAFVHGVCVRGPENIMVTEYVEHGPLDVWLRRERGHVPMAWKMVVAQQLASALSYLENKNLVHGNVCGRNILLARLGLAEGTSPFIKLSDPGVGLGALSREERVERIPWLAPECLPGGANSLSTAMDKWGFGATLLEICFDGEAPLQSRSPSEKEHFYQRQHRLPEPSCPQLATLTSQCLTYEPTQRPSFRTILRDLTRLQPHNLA
How it was run: (§1)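 Compounds tested as 11-point 3-fold serial dilutions against the JH2 domain in a Tb-antibody/tracer FRET binding format. Plates incubated 60 min at 25° C, then overnight at 4° C, before FRET reading.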

JAK1-JH2 domain = molecular target: T2, JAK1-JH2 domain (Homo sapiens, UniProt P23458); experiment: Binding activity test for JH2 domain of JAK1 (Tb-antibody/tracer FRET)
T2 construct: IC50 on JH2 domain activity (nM)
T2 sequence (P23458 583-855 limits assumed): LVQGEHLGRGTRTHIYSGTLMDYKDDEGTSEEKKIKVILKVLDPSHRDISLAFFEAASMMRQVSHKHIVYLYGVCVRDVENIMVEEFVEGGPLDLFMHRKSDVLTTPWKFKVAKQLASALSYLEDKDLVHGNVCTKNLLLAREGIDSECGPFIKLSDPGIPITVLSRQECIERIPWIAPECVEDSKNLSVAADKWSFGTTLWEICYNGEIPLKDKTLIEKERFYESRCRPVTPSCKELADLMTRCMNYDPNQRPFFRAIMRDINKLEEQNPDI
How it was run: as §1

[1] = molecular target: T3, Ba/F3-FL-TYK2-P760L cells (Homo sapiens, UniProt P29597, P760L, cells depend on it); experiment: Anti-proliferative assay, Ba/F3-FL-TYK2-P760L cells (Cell-Titer Glo); format: cell-based; settings: 72 h, read-out: BaF3-FL-T2P760L IC50
T3 construct: BaF3-FL-T2P760L (nM)
T3 sequence (P29597 whole entry P760L): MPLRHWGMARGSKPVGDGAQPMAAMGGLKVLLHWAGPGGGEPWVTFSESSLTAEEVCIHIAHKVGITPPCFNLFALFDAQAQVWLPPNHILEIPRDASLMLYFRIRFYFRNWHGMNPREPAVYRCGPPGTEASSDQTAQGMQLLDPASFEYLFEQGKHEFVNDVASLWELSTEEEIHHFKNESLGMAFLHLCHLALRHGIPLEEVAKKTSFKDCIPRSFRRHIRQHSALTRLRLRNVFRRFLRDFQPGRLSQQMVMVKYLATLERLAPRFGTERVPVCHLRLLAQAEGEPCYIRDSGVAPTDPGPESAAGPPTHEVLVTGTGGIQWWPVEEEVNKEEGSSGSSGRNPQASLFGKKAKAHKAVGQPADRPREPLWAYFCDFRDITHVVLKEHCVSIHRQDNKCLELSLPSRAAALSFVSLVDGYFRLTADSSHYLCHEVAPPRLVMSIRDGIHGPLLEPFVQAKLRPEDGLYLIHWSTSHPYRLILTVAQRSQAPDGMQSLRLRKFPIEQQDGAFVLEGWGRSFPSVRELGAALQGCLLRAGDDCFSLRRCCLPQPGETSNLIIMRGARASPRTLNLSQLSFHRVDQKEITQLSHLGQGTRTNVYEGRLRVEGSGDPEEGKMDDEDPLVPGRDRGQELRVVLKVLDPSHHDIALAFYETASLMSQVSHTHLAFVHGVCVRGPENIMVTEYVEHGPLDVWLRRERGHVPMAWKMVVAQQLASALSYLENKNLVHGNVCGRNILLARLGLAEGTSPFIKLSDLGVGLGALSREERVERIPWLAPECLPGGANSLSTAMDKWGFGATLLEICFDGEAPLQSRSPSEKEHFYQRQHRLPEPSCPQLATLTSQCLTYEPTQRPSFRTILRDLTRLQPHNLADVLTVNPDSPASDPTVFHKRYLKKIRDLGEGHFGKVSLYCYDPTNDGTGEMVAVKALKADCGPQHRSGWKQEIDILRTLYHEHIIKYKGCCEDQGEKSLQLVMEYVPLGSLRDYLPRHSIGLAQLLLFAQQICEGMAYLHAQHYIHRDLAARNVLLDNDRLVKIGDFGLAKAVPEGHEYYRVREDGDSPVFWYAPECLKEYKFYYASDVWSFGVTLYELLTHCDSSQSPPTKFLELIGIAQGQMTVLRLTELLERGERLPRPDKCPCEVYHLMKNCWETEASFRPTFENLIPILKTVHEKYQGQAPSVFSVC
How it was run: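 Ba/F3 cells made IL-3-independent by TEL-fused or full-length mutant JAK-family kinases, seeded at 2000/well and dosed after 24 h with 9 three-fold dilutions topping at 20 μM. Viability after 72 h at 37 °C, 5% CO2 by Cell-Titer Glo ATP luminescence.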

pSTAT1 = experiment: Phosphorylation inhibition of STAT in human whole blood, IFN-alpha stimulated (flow cytometry); format: cell-based; settings: 20 min, read-out: IC50 on pSTAT1 inhibition in h WB
Method: Phosphorylation Inhibition of STAT in Human PBMC and Human Whole Blood Testing:
The inhibitory potential of test articles in human PBMC and human whole blood assay was evaluated by the method of flow cytometry.
IFN-alpha will activate JAK1 and TYK2 kinase in T cells by binding to IFN receptors, and then lead to phosphorylation of STAT1 and STAT2. The phosphorylated STAT1 enter nuclear and promote transcription and expression of IFN-gamma. To evaluate the efficacy of TYK2i in T cells, freshly prepared human PBMC or freshly collected human whole blood will be stimulated with certain unit of human IFN-alpha (Universal Type I IFN(1MU), R&D, 11200-2) for 20 mins in incubator. After stimulation, fix cells with Phosflow™ Fix Buffer I (BD, 557870), and then collect fixed cells by centrifugation (500 g, 8 min). Wash cells once with pre-cooled PBS, and then permeabilize cells with cold Perm Buffer III buffer (BD, 558050) for 45 mins on ice. Collect cells by centrifugation (600 g, 8 min) and washed twice with cold PBS. Stain cells with anti-human CD3 (FITC Mouse Anti-Human CD3, BD, 555332) and anti-pSTAT1_Y701(Alexa Fluor 647 Mouse Anti-Stat1 (pY701), BD, 612597) antibodies. Detect pSTAT1 by flow cytometry (CytoFlex S) and analyze data with FlowJo and GraphPad Prism 8 software. IC50 values of test articles were determined using 4-parameter logistic equation.

[2] = Microsomal metabolic stability assay; format: in vitro ADME; settings: pH 7.4, 0.5 mg/mL protein, 1 μM compound
How it was run: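 Test article at 1 μM with 0.5 mg/mL microsomal protein and 2 mM NADPH, in 100 mM potassium phosphate pH 7.4 with 1.0 mM EDTA at 37 °C. Sampled at 0–45 min and quantified by LC/MS/MS. T1/2 from the slope of ln % remaining vs time.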

[3] = Hepatocytes metabolic stability assay; format: in vitro ADME; settings: cryopreserved hepatocytes, human hepatocytes, 1.0×10^6 cells/mL; for half-life at 1 μM: read-out: Human hepatocyte stability T1/2; for CLint scaled at 1 μM: read-out: Human hepatocyte Clint(liver)
Method: Hepatocytes Metabolic Stability Assay
The vials of cryopreserved hepatocytes were removed from the liquid nitrogen container and immediately immersed in a 37° C. water bath for approximately 2 min. The melted ice pellets were transferred into tubes containing 50 mL of pre-warmed thawing medium and mixed well by gently inverting the tubes, and then centrifuged at 500 rpm for 3 minutes at room temperature. The supernatants were discarded, and cell pellets were re-suspended by adding appropriate volumes of pre-warmed incubation medium. The cells viability of each species was determined using Trypan Blue exclusion. Add 50 μL of pre-warmed 2× dosing solution to the wells designated for different time points. Then 50 μL of cells suspension (2×10^6 cells/mL) were added into appropriate wells at corresponding time points of T15, T30, T60, T120. Start timing and put the plate in an incubator at 37° C. For TO sample, add 300 μL of ACN containing internal standard to the wells, mix gently, then add 50 μL of pre-warmed hepatocytes solution (2×10^6 cells/mL). The concentration of test compound was 1 μM and 1.0×10^6 cells/mL in the final incubation. At each corresponding time point, test and control compounds reaction samples were stopped by adding 300 μL acetonitrile containing internal standard. All sample plates were thoroughly mixed and centrifuged at 5000×g for 15 minutes. The supernatants were diluted at ratio of 1:1 with ultra-pure water for test and positive controls. Then submitted for LC-MS/MS analysis.
The analyte/internal standard peak area ratios were converted to percentage remaining with the following equation: […]
The in vitro elimination constant, k of test compounds and control compounds were calculated from a log linear plot of % Remaining versus time, then the half-life (T1/2), the estimation of the in vitro hepatic intrinsic clearance (CLint) values were calculated from substrate disappearance rate in hepatocytes incubation: […]

[4] = human whole blood, IFN-alpha 20 mins, CD3 cells
[5] = dog liver microsomes, read-out: Dog LM Clint
[6] = dog liver microsomes, read-out: Dog LM T½
[7] = human liver microsomes, read-out: Human LM Clint
[8] = human liver microsomes, read-out: Human LM T½
[9] = rat liver microsomes, read-out: Rat LM Clint
[10] = rat liver microsomes, read-out: Rat LM T½

| Structure (SMILES) | IC50 (TYK2-JH2 domain) | JAK1/TYK2 selectivity (TYK2-JH2 domain) | IC50 (JAK1-JH2 domain) | GI50 [1] | IC50 (pSTAT1; [4]) | microsomal CLint at 1 μM [2, 5] | half-life at 1 μM [2, 6] | microsomal CLint at 1 μM [2, 7] | half-life at 1 μM [2, 8] | microsomal CLint at 1 μM [2, 9] | half-life at 1 μM [2, 10] | half-life at 1 μM [3] | CLint scaled at 1 μM [3] | IC50 (pSTAT1; Homo sapiens) |
| --- | --- | --- | --- | --- | --- | --- | --- | --- | --- | --- | --- | --- | --- | --- |
| [2H]C([2H])([2H])NC(=O)c1cnc(NC(=O)C2CC2)cc1Nc1ncc2cnn(CC(F)(F)F)c2c1OC [Example 266, 6-(Cyclopropanecarboxamido)-4-((7-methoxy-1-(2,2,2-trifluoroethyl)-1H-pyrazolo[4,3-c]pyridin-6-yl)amino)-N-(methyl-d3)nicotinamide] | 0.287 nM | 154 | 44.2 nM | 76.2 nM | 94.3 nM | – | – | – | – | – | – | – | – | – |
| [2H]C([2H])([2H])NC(=O)c1nnc(NC(=O)C2CC2)cc1Nc1cn(C)c2ccn(C)c(=O)c12 [Example 224, 6-(Cyclopropanecarboxamido)-4-((1,5-dimethyl-4-oxo-4,5-dihydro-1H-pyrrolo[3,2-c]pyridin-3-yl)amino)-N-(methyl-d3)pyridazine-3-carboxamide] | – | – | – | 214 nM | 426 nM | – | – | – | – | – | – | – | – | – |
| [2H]C([2H])([2H])NC(=O)c1cnc(Nc2cc(C)nc(C)n2)cc1Nc1cc(F)c2cnn(CC)c2c1OC [Example 152, 6-((2,6-Dimethylpyrimidin-4-yl)amino)-4-((1-ethyl-4-fluoro-7-methoxy-1H-indazol-6-yl)amino)-N-(methyl-d3)nicotinamide] | 0.171 nM | 62.6 | 10.7 nM | 27.9 nM | 78.5 nM | 478 µL/min/mg | 2.9 min | 42.4 µL/min/mg | 32.7 min | 54.1 µL/min/mg | 25.6 min | > 240 min | – | – |
| [2H]C([2H])([2H])NC(=O)c1cnc(NC(=O)C2CC2)cc1Nc1nn(CC2CC2)c2ccn(CC(F)(F)F)c(=O)c12 [Example 203, 6-(Cyclopropanecarboxamido)-4-((1-(cyclopropylmethyl)-4-oxo-5-(2,2,2-trifluoroethyl)-4,5-dihydro-1H-pyrazolo[4,3-c]pyridin-3-yl)amino)-N-(methyl-d3)nicotinamide] | 0.173 nM | 106.7 | 18.5 nM | 46.6 nM | 468 nM | – | – | – | – | – | – | – | – | – |
| [2H]C([2H])([2H])NC(=O)c1cnc(NC(=O)C2CC2)cc1Nc1cn(C)c2ccn(CCO)c(=O)c12 [Example 113, 6-(Cyclopropanecarboxamido)-4-((5-(2-hydroxyethyl)-1-methyl-4-oxo-4,5-dihydro-1H-pyrrolo[3,2-c]pyridin-3-yl)amino)-N-(methyl-d3)nicotinamide] | – | – | – | 2390 nM | 344 nM | – | – | – | – | – | – | – | – | – |
| [2H]C([2H])([2H])NC(=O)c1cnc(NC(=O)C2CC2)cc1Nc1ccn2ncc(Cl)c2c1OC [Example 235, 4-((3-Chloro-4-methoxypyrazolo[1,5-a]pyridin-5-yl)amino)-6-(cyclopropanecarboxamido)-N-(methyl-d3)nicotinamide] | 0.262 nM | 25.7 | 6.74 nM | 44.7 nM | 440 nM | – | – | – | – | – | – | – | – | – |
| [2H]C([2H])([2H])NC(=O)c1cnc(NC(=O)C2CC2)cc1Nc1ccc2cnn(CC)c2c1OC([2H])([2H])[2H] [Example 132, 6-(Cyclopropanecarboxamido)-4-((1-ethyl-7-(methoxy-d3)-1H-indazol-6-yl)amino)-N-(methyl-d3)nicotinamide] | – | – | – | 70.8 nM | – | – | – | 24 µL/min/mg | 57.8 min | – | – | 93.1 min | 18.9 mL/min/kg | – |
| [2H]C([2H])([2H])NC(=O)c1cnc(NC(=O)C2CC2)cc1Nc1ccc2ccn(CC)c2c1OC [Example 244, 6-(Cyclopropanecarboxamido)-4-((1-ethyl-7-methoxy-1H-indol-6-yl)amino)-N-(methyl-d3)nicotinamide] | 0.125 nM | 36.6 | 4.58 nM | 18.1 nM | – | – | – | – | – | – | – | – | – | 190 nM |
| [2H]C([2H])([2H])NC(=O)c1cnc(NC(=O)C2CC2)cc1Nc1ccn2ncc(CC#N)c2c1OC [Example 239, 4-((3-(Cyanomethyl)-4-methoxypyrazolo[1,5-a]pyridin-5-yl)amino)-6-(cyclopropanecarboxamido)-N-(methyl-d3)nicotinamide] | 0.188 nM | 28.8 | 5.41 nM | 84.7 nM | 157 nM | – | – | – | – | – | – | – | – | – |
| [2H]C([2H])([2H])NC(=O)c1cnc(NC(=O)C2CC2)cc1Nc1nn(CC)c2ccn(CC(F)(F)F)c(=O)c12 [Example 105, 6-(Cyclopropanecarboxamido)-4-((1-ethyl-4-oxo-5-(2,2,2-trifluoroethyl)-4,5-dihydro-1H-pyrazolo[4,3-c]pyridin-3-yl)amino)-N-(methyl-d3)nicotinamide] | 0.733 nM | – | – | 146 nM | – | 10.4 µL/min/mg | 133 min | 5.58 µL/min/mg | 249 min | 45.9 µL/min/mg | 30.2 min | 203 min | 8.69 mL/min/kg | – |
| C=CCn1cc(Nc2cc(NC(=O)C3CC3)ncc2C(=O)NC)c2c(=O)n(CC)ccc21 [Example 246, 4-((1-Allyl-5-ethyl-4-oxo-4,5-dihydro-1H-pyrrolo[3,2-c]pyridin-3-yl)amino)-6-(cyclopropanecarboxamido)-N-methylnicotinamide] | 0.156 nM | 75.9 | 11.8 nM | 75.7 nM | 287 nM | – | – | – | – | – | – | – | – | – |
| [2H]C([2H])([2H])NC(=O)c1cnc(NC(=O)[C@@H]2C[C@@H]2F)cc1Nc1ccc2cnn(CC)c2c1OC (relative stereo) [Example 256, 4-((1-Ethyl-7-methoxy-1H-indazol-6-yl)amino)-6-(cis-2-fluorocyclopropanecarboxamido)-N-(methyl-d3)nicotinamide] | 0.265 nM | 40.8 | 10.8 nM | 69.5 nM | 256 nM | – | – | – | – | – | – | – | – | – |
| [2H]C([2H])([2H])NC(=O)c1cnc(Nc2ccncn2)cc1Nc1cc(F)c2cnn(CC)c2c1OC [Example 157, 4-((1-Ethyl-4-fluoro-7-methoxy-1H-indazol-6-yl)amino)-N-(methyl-d3)-6-(pyrimidin-4-ylamino)nicotinamide] | 0.357 nM | 70.6 | 25.2 nM | 53.9 nM | – | 42.1 µL/min/mg | 32.9 min | 79.9 µL/min/mg | 17.4 min | 106 µL/min/mg | 13.2 min | 127 min | 13.9 mL/min/kg | – |
